In publication PMC9989278, “Characterization of substrates and inhibitors of the human heterodimeric transporter 4F2hc-LAT1 using purified protein and the scintillation proximity radioligand binding assay” (Frontiers in Physiology, 2023):
Where two headings read alike, the source gives them in different places.

Assays:
[1] = biological target: T1, human 4F2hc-LAT1 (Homo sapiens, UniProt Q01650); test: Scintillation proximity radioligand binding assay (SPA), [3H]L-leucine competition on purified protein; settings: for Binding of [3H]L-Leucine (%), residual radioligand binding / Binding of [3H]L-Leucine (%), residual radioligand binding (RRB): normalized to control without competitor; for Binding of [3H]L-Leucine (%), residual radioligand binding: mean of three experiments
T1 construct: Strep-tag (N); made in house; host or cells: Pichia pastoris strain KM71H
T1 sequence (Q01650 whole entry): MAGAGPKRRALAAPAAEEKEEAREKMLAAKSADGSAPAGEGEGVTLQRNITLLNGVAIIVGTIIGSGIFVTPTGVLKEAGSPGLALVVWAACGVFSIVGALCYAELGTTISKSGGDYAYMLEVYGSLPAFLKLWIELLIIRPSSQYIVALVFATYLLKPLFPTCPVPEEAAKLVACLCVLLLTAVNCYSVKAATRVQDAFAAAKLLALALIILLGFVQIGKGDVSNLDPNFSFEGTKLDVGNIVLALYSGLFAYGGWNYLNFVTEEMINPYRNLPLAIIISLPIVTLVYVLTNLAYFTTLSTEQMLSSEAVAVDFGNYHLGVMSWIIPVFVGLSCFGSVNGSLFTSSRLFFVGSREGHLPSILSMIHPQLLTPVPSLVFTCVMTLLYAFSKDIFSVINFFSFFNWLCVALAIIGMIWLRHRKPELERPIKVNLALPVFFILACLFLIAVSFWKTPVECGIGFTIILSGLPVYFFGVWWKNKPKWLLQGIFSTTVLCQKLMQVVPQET
T1 sequence (P08195 102-630 partner): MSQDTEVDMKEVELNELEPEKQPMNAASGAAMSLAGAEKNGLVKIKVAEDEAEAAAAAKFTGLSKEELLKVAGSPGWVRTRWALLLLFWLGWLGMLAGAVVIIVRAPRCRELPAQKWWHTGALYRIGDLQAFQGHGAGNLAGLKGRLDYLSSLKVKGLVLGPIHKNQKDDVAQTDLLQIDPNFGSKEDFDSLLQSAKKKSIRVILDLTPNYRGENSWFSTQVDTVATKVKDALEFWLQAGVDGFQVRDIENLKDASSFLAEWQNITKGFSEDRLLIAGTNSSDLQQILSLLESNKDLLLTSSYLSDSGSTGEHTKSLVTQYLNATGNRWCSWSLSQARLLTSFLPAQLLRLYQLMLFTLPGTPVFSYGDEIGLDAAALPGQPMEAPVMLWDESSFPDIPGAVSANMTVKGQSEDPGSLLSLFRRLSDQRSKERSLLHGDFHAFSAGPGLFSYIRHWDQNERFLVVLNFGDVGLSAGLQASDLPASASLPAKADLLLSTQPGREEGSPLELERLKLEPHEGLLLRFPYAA
Procedure: Purified, GDN-solubilized human 4F2hc-LAT1 was attached via the His-tag to polyvinyltolune (PVT) copper His-tag SPA beads (Perkin Elmer) and the protein-bound [^3H]L-leucine quantified using a scintillation counter (a detailed description of SPA with 4F2hc-LAT1 is given in the methodological publication by ([Kantipudi et al., 2021])). Briefly, experiments were conducted in 96-well plates and per well a reaction volume of 50 µL containing 250 µg PVT-SPA-beads, 1.75 µg 4F2hc-LAT1 protein, 2.5 μM L-leucine spiked with 0.5 µCi [^3H]L-leucine (ARC/Anawa, 100 Ci/mmol, 1 mCi/ml) plus a condition-specific substance. All components were dissolved in SPA-Buffer (100 mM BTP pH 8, 150 mM NaCl, 10% (v/v) glycerol, 0.5% (w/v) GDN). For some condition-specific substances (i.e., the thyroid hormones), 20 min sonication in a water bath at 4°C was necessary to dissolve them at 10× concentration in SPA-Buffer. Per reaction, 5 µL of a 10× stock solution of the condition-specific substance was placed in a well and diluted with 45 µL of a master mix containing the remaining components. For determining the substrate specificities (Figure 1), the twenty proteogenic L-amino acids and D-leucine were used as competitors at a final concentration of 250 µM. For determining the K D of L-leucine (Figure 2A) and K i of L-histidine (Figure 2B), homologous (L-leucine) and heterologous (L-histidine) substrate competition was applied at concentrations ranging from 0.01 to 1600 µM. […] The binding specificities of structural analogues of L-leucine (Figure 3) and L-histidine (Figure 4) were tested at a final competitor concentration of 250 µM. […] To avoid minor unspecific binding of radioactive L-leucine to the beads, the master mix was created in a specific procedure: SPA-beads were first mixed with the unlabeled L-leucine and shaken for 2 h at 4°C before adding the remaining components (protein last). For background subtraction in the bar graph experiments, a no-protein control was included using protein-free master mix (i.e., containing buffer instead of protein solution). The plate was shortly mixed by shaking and incubated at 4°C for ∼18 h before the signals were counted using a microplate scintillation counter (Trilux Microbeta, Perkin Elmer). […] Three experiments with protein from at least two different purifications were performed, each at least in triplicates.
Data were analyzed with Prism 6 (GraphPad Software). […] Each experiment was done with sample number of at least three (triplicate). Data of three independent experiments were merged by adding the normalized data to a common data set, which was used for curve fitting. For data analysis of the bar graphs, the signal of the no-protein control was subtracted from the transporter signal to obtain the net binding signal.

[2] = biological target: T1, human 4F2hc-LAT1; settings: ref Kantipudi et al., 2020, cited from earlier work
[3] = test system: recombinant human LAT1; parameters: method as in Napolitano et al., 2015; settings: proteoliposomes, ref Napolitano et al., 2015, cited from earlier work
[4] = Figure 3, L-leucine analogues, competitor 250 µM
[5] = heterologous competition with [3H]L-leucine, Figure 2B, C, E, F, read-out: Ki
[6] = Figure 4, L-histidine analogues, competitor 250 µM

CC(C)C[C@H](N)C(=O)O [L-Leucine, L-leucine]
Binding of [3H]L-Leucine (%), residual radioligand binding ([1]; Figure 1, competitor 250 µM): 1% | Binding of [3H]L-Leucine (%), residual radioligand binding (RRB) [1, 4]: 1% | binding / inhibition of [3H]L-leucine binding to 4F2hc-LAT1, in words ([1]; competitor 250 µM): inhibited strongly | Kd ([1]; homologous competition with [3H]L-leucine, Figure 2A): 26 µM | Km ([2]; P. pastoris cell uptake assay): 25 µM

N[C@@H](Cc1c[nH]c2ccccc12)C(=O)O [Trp, L-tryptophan]
Binding of [3H]L-Leucine (%), residual radioligand binding ([1]; Figure 1, competitor 250 µM): 21% | Binding of [3H]L-Leucine (%), residual radioligand binding ([1]; Figure 1, competitor 250 µM, listed as L-tryptophan): 19-29%

NC1(C(=O)O)CC2CCC1C2 (centres unmarked) [BCH, 2-aminobicyclo-(2,2,1)-heptane-2-carboxylic acid]
Ki [1, 5]: 81 µM

CN[C@@H](Cc1c[nH]cn1)C(=O)O [N-Methyl L-Histidine, N-methyl-L-histidine]
Binding of [3H]L-Leucine (%), residual radioligand binding (RRB) [1, 6]: 103% | binding / inhibition of [3H]L-leucine binding to 4F2hc-LAT1, in words ([1]; competitor 250 µM): no significant binding

C[C@H](N)C(=O)O [Ala]
Binding of [3H]L-Leucine (%), residual radioligand binding ([1]; Figure 1, competitor 250 µM): 36%

NC(=O)C[C@H](N)C(=O)O [Asn]
Binding of [3H]L-Leucine (%), residual radioligand binding ([1]; Figure 1, competitor 250 µM): 35%

CC(C)[C@H](N)C(=O)O [L-Valine, L-valine]
Binding of [3H]L-Leucine (%), residual radioligand binding ([1]; Figure 1, competitor 250 µM): 19-29% | Binding of [3H]L-Leucine (%), residual radioligand binding ([1]; Figure 1, competitor 250 µM, listed as Val): 19% | Binding of [3H]L-Leucine (%), residual radioligand binding (RRB) [1, 4]: 27%

CCC[C@H](N)C(=O)O [L-Norvaline, L-norvaline]
Binding of [3H]L-Leucine (%), residual radioligand binding (RRB) [1, 4]: 32% | Binding of [3H]L-Leucine (%), residual radioligand binding (RRB) ([1]; Figure 3, L-leucine analogues, competitor 250 µM, listed as L-norvaline): 32–43%

CC[C@H](C)[C@H](N)C(=O)O [L-Isoleucine, L-isoleucine]
Binding of [3H]L-Leucine (%), residual radioligand binding ([1]; Figure 1, competitor 250 µM): 19-29% | Binding of [3H]L-Leucine (%), residual radioligand binding ([1]; Figure 1, competitor 250 µM, listed as Ile): 22% | Binding of [3H]L-Leucine (%), residual radioligand binding (RRB) [1, 4]: 28%

NCCCC[C@H](N)C(=O)O [Lys]
Binding of [3H]L-Leucine (%), residual radioligand binding ([1]; Figure 1, competitor 250 µM): 45%

C[C@@H](O)[C@H](N)C(=O)O [Thr]
Binding of [3H]L-Leucine (%), residual radioligand binding ([1]; Figure 1, competitor 250 µM): 34%

CC(C)(C)C[C@H](N)C(=O)O [L-Neopentylglycine, L-neopentyl glycine]
Binding of [3H]L-Leucine (%), residual radioligand binding (RRB) [1, 4]: 43% | Binding of [3H]L-Leucine (%), residual radioligand binding (RRB) ([1]; Figure 3, L-leucine analogues, competitor 250 µM, listed as L-neopentyl glycine): 32–43%

N[C@@H](CCC(=O)O)C(=O)O [Glu]
Binding of [3H]L-Leucine (%), residual radioligand binding ([1]; Figure 1, competitor 250 µM): 90%

N[C@@H](Cc1ccc(O)cc1)C(=O)O [Tyr, L-tyrosine]
Binding of [3H]L-Leucine (%), residual radioligand binding ([1]; Figure 1, competitor 250 µM): 26% | Binding of [3H]L-Leucine (%), residual radioligand binding ([1]; Figure 1, competitor 250 µM, listed as L-tyrosine): 19-29%

CCCC[C@H](N)C(=O)O [L-Norleucine, L-norleucine]
Binding of [3H]L-Leucine (%), residual radioligand binding (RRB) [1, 4]: 62%

N[C@@H](Cc1c[nH]cn1)C(=O)O [L-Histidine, L-histidine]
Binding of [3H]L-Leucine (%), residual radioligand binding ([1]; Figure 1, competitor 250 µM): 2% | Binding of [3H]L-Leucine (%), residual radioligand binding (RRB) [1, 6]: 1% | binding / inhibition of [3H]L-leucine binding to 4F2hc-LAT1, in words ([1]; competitor 250 µM): inhibited strongly | Ki [1, 5]: 28 µM | Km ([3]; external side, read-out: external Km): 24.6 µM | Km ([3]; internal side, read-out: internal Km): 2800 µM | IC50 ([2]; [3H]L-leucine uptake inhibition, P. pastoris cells): 23 µM

Cn1cnc(C[C@H](N)C(=O)O)c1 [1-Methyl L-Histidine, 1-methyl-L-histidine]
Binding of [3H]L-Leucine (%), residual radioligand binding (RRB) [1, 6]: 59% | Binding of [3H]L-Leucine (%), residual radioligand binding (RRB) ([1]; Figure 4, L-histidine analogues, competitor 250 µM, listed as 1-methyl-L-histidine): 59–64%

CC[C@H](N)C(=O)O [L-2-Aminobutyric Acid, L-2-aminobutyric acid]
Binding of [3H]L-Leucine (%), residual radioligand binding (RRB) [1, 4]: 45% | Binding of [3H]L-Leucine (%), residual radioligand binding (RRB) ([1]; Figure 3, L-leucine analogues, competitor 250 µM, listed as L-2-aminobutyric acid): 37–45%

CN[C@@H](CC(C)C)C(=O)O [N-Methyl-L-Leucine, N-methyl-L-leucine]
Binding of [3H]L-Leucine (%), residual radioligand binding (RRB) [1, 4]: 103% | binding / inhibition of [3H]L-leucine binding to 4F2hc-LAT1, in words ([1]; competitor 250 µM): no significant binding

CC(C)C[C@@H](N)C(=O)O [D-Leu, D-leucine]
Binding of [3H]L-Leucine (%), residual radioligand binding ([1]; Figure 1, competitor 250 µM): 52% | inhibition of [3H]L-leucine binding ([1]; competitor 250 µM, Figure 1): about 50%

NCC(=O)O [Gly]
Binding of [3H]L-Leucine (%), residual radioligand binding ([1]; Figure 1, competitor 250 µM): 44%

N[C@@H](CS)C(=O)O [Cys]
Binding of [3H]L-Leucine (%), residual radioligand binding ([1]; Figure 1, competitor 250 µM): 35%

N[C@@H](CC(=O)O)C(=O)O [Asp]
Binding of [3H]L-Leucine (%), residual radioligand binding ([1]; Figure 1, competitor 250 µM): 45%

N[C@@H](Cc1ccccc1)C(=O)O [Phe, L-phenylalanine]
Binding of [3H]L-Leucine (%), residual radioligand binding ([1]; Figure 1, competitor 250 µM): 29% | Binding of [3H]L-Leucine (%), residual radioligand binding ([1]; Figure 1, competitor 250 µM, listed as L-phenylalanine): 19-29%

Cn1cncc1C[C@H](N)C(=O)O [3-Methyl L-Histidine, 3-methyl-L-histidine]
Binding of [3H]L-Leucine (%), residual radioligand binding (RRB) [1, 6]: 64% | Binding of [3H]L-Leucine (%), residual radioligand binding (RRB) ([1]; Figure 4, L-histidine analogues, competitor 250 µM, listed as 3-methyl-L-histidine): 59–64%

NC(Cc1cc(I)c(Oc2cc(I)c(O)c(I)c2)c(I)c1)C(=O)O (centres unmarked) [T4, thyroxine]
Ki [1]: 10 µM

Nc1cc(COc2c(Cl)cc(C[C@H](N)C(=O)O)cc2Cl)c2oc(-c3ccccc3)nc2c1 [JPH203, (S)-2-amino-3-(4-((5-amino-2-phenylbenzo [d]oxazol-7-yl)-methoxy)-3,5-dichlorophenyl)-propanoic acid]
Ki ([1]; heterologous competition with [3H]L-leucine, Figure 2D, read-out: Ki): 0.079 µM

COC(=O)[C@@H](N)Cc1c[nH]cn1 [L-Histidine Methyl Ester, L-histidine-methyl ester]
Binding of [3H]L-Leucine (%), residual radioligand binding (RRB) [1, 6]: 102% | binding / inhibition of [3H]L-leucine binding to 4F2hc-LAT1, in words ([1]; competitor 250 µM): no significant binding

NC(=O)CC[C@H](N)C(=O)O [Gln, L-glutamine]
Binding of [3H]L-Leucine (%), residual radioligand binding ([1]; Figure 1, competitor 250 µM): 29%

CSCC[C@H](N)C(=O)O [Met]
Binding of [3H]L-Leucine (%), residual radioligand binding ([1]; Figure 1, competitor 250 µM): 36%

N[C@@H](CO)C(=O)O [Ser]
Binding of [3H]L-Leucine (%), residual radioligand binding ([1]; Figure 1, competitor 250 µM): 46%

CC(C)(C)[C@H](N)C(=O)O [L-tert-Leucine, L-tert-leucine]
Binding of [3H]L-Leucine (%), residual radioligand binding (RRB) [1, 4]: 37% | Binding of [3H]L-Leucine (%), residual radioligand binding (RRB) ([1]; Figure 3, L-leucine analogues, competitor 250 µM, listed as L-tert-leucine): 37–45%

COC(=O)[C@@H](N)CC(C)C [L-Leucine-Methyl Ester, L-leucine-methyl ester]
Binding of [3H]L-Leucine (%), residual radioligand binding (RRB) [1, 4]: 106% | binding / inhibition of [3H]L-leucine binding to 4F2hc-LAT1, in words ([1]; competitor 250 µM): no significant binding

N=C(N)NCCC[C@H](N)C(=O)O [Arg]
Binding of [3H]L-Leucine (%), residual radioligand binding ([1]; Figure 1, competitor 250 µM): 68%
